# From patent US20170349860A1, “ENZYME STABILIZERS” (Henkel AG & Co. KGaA, priority 2014, published 2017)
# Tested on: protease
# Test: Storage stability of protease in detergent formulation: residual proteolytic activity by AAPF-pNA assay
# Format: biochemical
# Settings: 1% protease, 1% (w/w) candidate compound in detergent formulation; stored 8 weeks at 30° C.; AAPF-pNA substrate, 25° C., pH 8.6, 410 nm
# Description: The storage stability of protease-containing detergents and cleaning agents was tested for use as enzyme stabilizers in the presence of candidate compounds. For this purpose, the candidate compounds were formulated in the presence of up to 1% (w/w) 1,2-propanediol in a detergent or cleaning agent formulation (see Table 2). The protease (1% PUR) was then added to the formulation, and the formulation stored for 8 weeks at 30° C.
# In parallel batches, the proteolytic activity of 1% protease was determined in 4% PG (1,2-propanediol), 85% matrix (see Table 1), then, each following incubation with 1% of the candidate compound (specified in w/w; QS 100% with water) determined in half of the batches in the formulation as indicated in Table 1 by the release of the chromophore para-nitroaniline from the succinyl-alanine-alanine-proline-phenylalanine para-nitroanilide substrate (AAPF-pNA; Bachem L-1400). The release of the pNA caused an increase in the absorbance at 410 nm, the progress over time of which is a measure of enzymatic activity. […]
# For evaluation, the initial values for the proteolytic activity of the agent in question were compared to the values determined after storage. […] The stabilizing effect of each tested compound is thus measured as a relative percentage increase in the residual protease activity.
smiles,measurement,value
"O=C(O)CCCCCNc1nc(NCCCCCC(=O)O)nc(NCCCCCC(=O)O)n1 [2,4,6-Tri-(6-aminocaproic acid)-1,3,5-triazine]",Relative residual activity after incubation with KV,136%
